The test system of experiment [1] is HeLa cells. Kind of experiment: Cell penetrating activity of FITC-labelled mutant peptides, mean fluorescence intensity by FACS. Format: cell-based. As to conditions: for mean fluorescence intensity (MFI) relative to WT, MFI of WT at 10 μM set to 1: peptide at 10 μM; for mean fluorescence intensity (MFI) relative to WT, MFI of WT at 10 μM set to 1 / mean fluorescence intensity (MFI) relative to WT / translocation efficiency compared with another peptide variant (comparator named in the value): 2 hours, FACS; for mean fluorescence intensity (MFI) relative to WT: peptide at 100 μM; for penetrating activity compared with TAT: 100 μM. The procedure:
N-terminus of each peptide was labeled with fluorescence dye, FITC and C-terminus was protected. Peptide purity (>95%) was determined by HPLC. Synthesis of the peptides of the present invention was requested to PEPTRON, Inc.
HeLa cell line was propagated in DMEM supplemented with 10% FBS and 100 units/mL penicillin-streptomycin. Cells were grown in a 5% CO2 incubator at 37° C.
HeLa cells were cultured in 6-well plate until they were 70˜80% grown up before a day of the experiment. The cells were washed with DMEM of 37° C. twice, and TCTP-derived peptides synthesized in Example 5-1) were treated to the culture medium in a dose dependent manner (0, 1, 10, 100 μM), then the cells was incubated for 2 hours in an CO2 incubator at 37° C.,
After the incubation, the cells were washed in cool PBS two times and treated with 1 mg/ml trypsin for 15 min at 37° C. to digest peptides attached on cell membrane and washed in PBS twice again. Then, the cells were analyzed by FACS at emission 510 nm and excitation 530 nm for a measurement of FITC of intracellular uptake marker (FIGS. 7, 8 and 9). Intracellular translocation efficiency of mutant peptides, TCTP-CPP#1-35(SEQ ID Nos.: 20-54) was compared to wild type(WT), TCTP(1-10)(SEQ ID No.: 1) and control peptide, TAT(48-57).

In experiment [2] the test system is HeLa cells. Kind of experiment: Cell penetrating efficiency of rhodamine-labelled TCTP-derived peptides, microplate fluorescence reader. The conditions noted are these: for cell penetrating activity / translocation efficiency in comparison with TAT (words): HeLa, rhodamine-labelled peptides, overall. In kind it is cell-based. The procedure:
N-terminus of each peptides was labeled with fluorescence dye, rhodamine and C-terminus was protected. Peptide purity (>95%) was determined by HPLC. Synthesis of the peptides was requested to PEPTRON, Inc.
HeLa cell line (ATCC) was propagated in DMEM (GIBCO) supplemented with 10% FBS (GIBCO) and 100 units/mL penicillin-streptomycin. Cells were grown in a 5% CO2 incubator at 37° C.
HeLa cells were cultured in 48-well plate until they were 70˜80% grown up before a day of the experiment. The cells were washed with DMEM of 37° C. twice, and TCTP-derived peptides synthesized in Example 2-1) were treated to the culture medium in a dose dependent manner (0, 1, 5, 10, 50, 100 μM), then the cells was incubated for 15 minutes or 2 hours in an CO2 incubator at 37° C.
After the incubation, the cells were washed in cool PBS three times and immediately measured by a microplate fluorescence reader (BIO-TEK instruments, Inc., Vermont, USA) at emission 530 nm and excitation 590 nm for a measurement of rhodamine of intracellular uptake marker. The sensitivity of reader was set at 100 as a basic mode, but was lowered to 75 if the fluorescent signals were too strong. All experiments were conducted in triplet repeats for reproducibility (FIG. 2 and FIG. 3).

Values joined by “and” are separate entries in the source; they are usually repeats but may differ in a detail not shown here. Identical values can stand only once. “Also recorded” adds a separate entry of the source.

With “CIISRDLISH (mutant peptide based on human sequence; (1)..(10) TCTP-CPP#6) [SEQ ID No.: 25]”, in experiment [1], the “mean fluorescence intensity (MFI) relative to WT, MFI of WT at 10 μM set to 1” value came out at 0.91 times and the “mean fluorescence intensity (MFI) relative to WT” value is reported as 1.81 times.
Consider “FIIFRIAASHKK (mutant peptide based on human sequence; (1)..(12) TCTP-CPP#15) [SEQ ID No.: 34]”, for which the “translocation efficiency compared with another peptide variant (comparator named in the value)” value in experiment [1] is “increased result of translocation efficiency at the concentration of 10 μM and a decreased result at 100 μM, compared to SEQ ID No.: 31”.
Take “IIYRDLISH ((1)..(9) 2-10 amino acid residue of TCTP; listed as Homo sapiens) [SEQ ID No.: 4, Residues of TCTP(2-10)]”: the “intracellular translocation, dependence on concentration” value in experiment [2] (0-100 μM, 15 minutes or 2 hours) is “not translocated at a concentration of 1 μM to 10 μM”. Also, in experiment [2] (1 μM and 10 μM), the “efficiency versus control peptide TAT at low concentration” value was “lower efficiency than control peptide, TAT”. Moreover, the “translocation” value in experiment [2] (100 μM, 15 minutes treatment) is “more efficiently translocated at 100 μM after 15 minutes treatment”. The “cell penetrating activity / translocation efficiency in comparison with TAT (words)” value was “excellent cell penetrating activity in comparison with conventional TAT” in experiment [2]; “superior ability than well-known PTD, TAT in their translocation efficiency” in experiment [2] (listed as TCTP (2-10)); “more excellent penetrating activity than well-known TAT(47-58) peptide” in experiment [2] (listed as TCTP(2-10)). For the same sequence, in experiment [2] (after 2 hours, 100 μM), the “translocation versus control peptide TAT(48-57)” value is listed as “more efficiently translocated at 100 μM than control peptide”.
With “LIIFAIAASHKK (mutant peptide based on human sequence; (1)..(12) TCTP-CPP#34) [SEQ ID No.: 53]”, the “mean fluorescence intensity (MFI) relative to WT, MFI of WT at 10 μM set to 1” value in experiment [1] was 8.24 times.
For “LIIFRIAASHKK (mutant peptide based on human sequence; (1)..(12) TCTP-CPP#16) [SEQ ID No.: 35]”, in experiment [1], the “translocation efficiency compared with another peptide variant (comparator named in the value)” value was “increased result of translocation efficiency at the concentration of 10 μM and a decreased result at 100 μM, compared to SEQ ID No.: 31”; the “mean fluorescence intensity (MFI) relative to WT, MFI of WT at 10 μM set to 1” value was 29.53 times.
With “LIIFRILISHHH (mutant peptide based on human sequence; (1)..(12) TCTP-CPP#30) [SEQ ID No.: 49]”, in experiment [1] (concentration not given), the “cell penetrating activity compared with TAT” value is reported as “excellent activity compared with TAT”.
With “LIIFRILISHKK (mutant peptide based on human sequence; (1)..(12) TCTP-CPP#27) [SEQ ID No.: 46]”, in experiment [1], the “translocation efficiency compared with another peptide variant (comparator named in the value)” value is “substitution for leucine caused the decreased penetrating activity” and the “mean fluorescence intensity (MFI) relative to WT, MFI of WT at 10 μM set to 1” value is recorded as 3.75 times.
Regarding “MIIFAIAASHKK (mutant peptide based on human sequence; (1)..(12) TCTP-CPP#26) [SEQ ID No.: 45]”, the “mean fluorescence intensity (MFI) relative to WT, MFI of WT at 10 μM set to 1” value in experiment [1] is given as 11.47 times.
On to “MIIFKIAASHKK (mutant peptide based on human sequence; (1)..(12) TCTP-CPP#24) [SEQ ID No.: 43]”, for which the “mean fluorescence intensity (MFI) relative to WT, MFI of WT at 10 μM set to 1” value in experiment [1] came out at 12.1 times.
Turning to “MIIFRAAASHKK (mutant peptide based on human sequence; (1)..(12) TCTP-CPP#14) [SEQ ID No.: 33]”, in experiment [1], the “translocation efficiency compared with another peptide variant (comparator named in the value)” value is recorded as “similarly increased at 100 μM” and the “mean fluorescence intensity (MFI) relative to WT, MFI of WT at 10 μM set to 1” value turned out to be 3.2 times.
With “MIIFRDLISH (mutant peptide based on human sequence; (1)..(10) TCTP-CPP#3) [SEQ ID No.: 22]”, in experiment [1], the “penetrating activity compared with TAT” value is “better penetrating activity than TAT(100 μM)”; the “mean fluorescence intensity (MFI) relative to WT, MFI of WT at 10 μM set to 1” value amounted to 19.63 times; the “mean fluorescence intensity (MFI) relative to WT” value turned out to be 216.75 times.
Consider “MIIFRIAASHKK (mutant peptide based on human sequence; (1)..(12) TCTP-CPP#12) [SEQ ID No.: 31]”, for which, in experiment [1], the “translocation efficiency compared with another peptide variant (comparator named in the value)” value is “similarly increased at 100 μM”; the “mean fluorescence intensity (MFI) relative to WT, MFI of WT at 10 μM set to 1” value was 29 times and 26.77 times.
Regarding “MIIFRIAAYHKK (mutant peptide based on human sequence; (1)..(12) TCTP-CPP#20) [SEQ ID No.: 39]”, in experiment [1], the “translocation efficiency compared with another peptide variant (comparator named in the value)” value is reported as “lower than SEQ ID No.: 34 at the concentration of 100 μM” and the “mean fluorescence intensity (MFI) relative to WT, MFI of WT at 10 μM set to 1” value was found to be 25.0 times.
On to “MIIFRILISHKK (mutant peptide based on human sequence; (1)..(12) TCTP-CPP#28) [SEQ ID No.: 47]”, for which the “mean fluorescence intensity (MFI) relative to WT, MFI of WT at 10 μM set to 1” value in experiment [1] was found to be 7.04 times.
Turning to “MIIYRAEISH (mutant peptide based on human sequence; (1)..(10) TCTP-CPP#10) [SEQ ID No.: 29]”, in experiment [1] (concentration not given), the “cell penetrating activity compared with WT SEQ ID No.: 1” value is listed as “decreased to same degree with alanine substituent”.
For the sequence “MIIYRALISHKK (mutant peptide based on human sequence; (1)..(12) TCTP-CPP#7) [SEQ ID No.: 26]”, in experiment [1], the “penetrating activity compared with TAT” value was “better penetrating activity than TAT(100 μM)”; the “mean fluorescence intensity (MFI) relative to WT, MFI of WT at 10 μM set to 1” value came out at 6.04 times; the “mean fluorescence intensity (MFI) relative to WT” value was determined as 144.6 times. Besides, the “cell penetrating activity compared with WT SEQ ID No.: 1” value in experiment [1] (concentration not given) is listed as “increased cell penetrating activity”.
As for “MIIYRDKKSH (mutant peptide based on human sequence; (1)..(10) TCTP-CPP#2) [SEQ ID No.: 21]”, in experiment [1] (concentration not given), the “cell penetrating activity compared with WT SEQ ID No.: 1” value is reported as “decreased twice”.
“MIIYRIAASHKK (mutant peptide based on human sequence; (1)..(12) TCTP-CPP#8) [SEQ ID No.: 27]”: in experiment [1], the “penetrating activity compared with TAT” value is “better penetrating activity than TAT(100 μM)”; the “mean fluorescence intensity (MFI) relative to WT, MFI of WT at 10 μM set to 1” value is given as 1.73 times; the “mean fluorescence intensity (MFI) relative to WT” value turned out to be 342.9 times. Also, the “cell penetrating activity compared with WT SEQ ID No.: 1” value in experiment [1] (concentration not given) is “increased cell penetrating activity”.
Take “WIIFKIAASHKK (mutant peptide based on human sequence; (1)..(12) TCTP-CPP#25) [SEQ ID No.: 44]”: in experiment [1], the “mean fluorescence intensity (MFI) relative to WT, MFI of WT at 10 μM set to 1” value worked out at 15.04 times.
As to “WIIFRAAASHKK (mutant peptide based on human sequence; (1)..(12) TCTP-CPP#18) [SEQ ID No.: 37]”, in experiment [1], the “translocation efficiency compared with another peptide variant (comparator named in the value)” value was “lower than SEQ ID No.: 34 at the concentration of 100 μM; also recorded: substitution for tryptophan did not increase translocation efficiency” and the “mean fluorescence intensity (MFI) relative to WT, MFI of WT at 10 μM set to 1” value came to 52.0 times.
For the sequence “WIIFRALISHKK (mutant peptide based on human sequence; (1)..(12) TCTP-CPP#19) [SEQ ID No.: 38]”, in experiment [1], the “translocation efficiency compared with another peptide variant (comparator named in the value)” value was “lower than SEQ ID No.: 34 at the concentration of 100 μM; also recorded: substitution for tryptophan did not increase translocation efficiency” and the “mean fluorescence intensity (MFI) relative to WT, MFI of WT at 10 μM set to 1” value is given as 55.6 times.
“WIIFRIAASHKK (mutant peptide based on human sequence; (1)..(12) TCTP-CPP#17) [SEQ ID No.: 36]”: in experiment [1], the “translocation efficiency compared with another peptide variant (comparator named in the value)” value is “stronger than SEQ ID No.: 40(WT-IX:Y) and SEQ ID No.: 42(WT-IX:T) only at 10 μM”; the “mean fluorescence intensity (MFI) relative to WT, MFI of WT at 10 μM set to 1” value is 18.4 times.
